{"source": "patent US11779530B2", "about": "“Composition for the permanent deformation of hair having reduced odor” (Noxell Corporation, priority 2016, dated 2023)"}
{"test": "distribution coefficient log P (octanol/water) of raw materials", "format": "physicochemical", "conditions": "raw material of one-component malodor suppressant system", "from_the_text": "In the fields of organic and medicinal chemistry, a distribution (P) coefficient is the ratio of concentrations of a compound in the two phases of a mixture of two immiscible solvents at equilibrium. […] One of the solvents chosen is water while the second is octanol. […] The partition coefficient is the ratio of concentrations of un-ionized compound between the two solutions. The logarithm of the ratio of the concentrations of the un-ionized solute in the solvents is called log P:\n[formula] The log P (octanol/water) is referred hereinafter as “log P”, unless otherwise specified."}
{"compound": "Operanide [S4]", "log P (octanol/water)": 4.90}
{"compound": "CCCCCCCCCCCCCC(=O)OC(C)C", "note": "[S1, isopropylmyristate]", "log P (octanol/water)": 7.41}
{"compound": "CC1COCc2cc3c(cc21)C(C)(C)C(C)C3(C)C", "note": "(stereo not drawn) [S3, Galaxolide]", "log P (octanol/water)": 5.93}
